Test results: patent publication US12714711B2, “Salts of neuroceuticals and uses thereof” (priority 2020, dated 2026)
Entries after “also recorded” stand apart in the source; their conditions may differ. Like-named read-outs stand apart in the source and are kept apart here.

Tests used:
[1] = fasting glucose
Description: The testing compounds were administered to mice either through intraperitoneal (i.p.) injection or oral gavage before analyzing blood glucose levels.
For the acute study, two cohorts of mice were used.
For repeated-dose study, mice were randomly assigned into five groups as listed below. • Group 1: Vehicle control • Group 2: Clz (3 mg/kg) • Group 3: Clz:NA 1:1 salt (4.13 mg/kg) • Group 4: Clz (10 mg/kg) • Group 5: Clz:NA 1:1 salt (13.77 mg/kg)
The night before blood glucose levels were measured, the mice were fasted. Blood glucose levels were measured with a portable glucose meter (Contour® Plus, Bayer AG, Leverkusen, Germany) After waiting for 60 min, the treatments indicated above were administered. FIG. 75 illustrates the experimental design of this study.
Two cohorts of mice were used in this study. In cohort 1, mice were randomly assigned into the five groups listed below: • Group 1: Vehicle control • Group 2: NA (3.94 mg/kg) • Group 3: Olz (10 mg/kg) • Group 4: Olz (10 mg/kg)+NA (3.94 mg/kg) • Group 5: Olz:NA 1:1 salt (13.94 mg/kg)
Dosing occurred 60 min prior to measuring blood glucose levels.
In cohort 2, mice were randomly assigned into the five groups listed below: • Group 1: Vehicle control • Group 2: Olz (5 mg/kg) • Group 3: Olz:NA 1:1 salt (6.97 mg/kg) • Group 4: Olz (10 mg/kg) • Group 5: Olz:NA 1:1 salt (13.94 mg/kg)
The night before the glucose tolerance test, the mice fasted. Blood glucose levels were measured in whole blood that was collected from the mouse's tail vein. Glucose levels were measured with a portable glucose meter (Contour® Plus, Bayer AG, Leverkusen, Germany), with the measurement occurring 60 min after the mice were dosed with the treatments indicated above Immediately following the glucose measurement, all mice were subjected to a glucose tolerance test, which involved an intraperitoneal challenge injection of 1 g/kg of glucose, followed by measuring blood glucose levels at 0, 30, 60 and 120 minutes.

[2] = test system: MK-801 treated mice; experiment: Open field test, MK-801 induced hyper-locomotion; details: for Recovery rate (%): MK801-treated mice; for locomotor activity in MK-801 treated mice: MK-801 0.2 mg/kg i.p.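 For all read-outs here: adult male C57BL/6J mice, locomotion counted as total photobeam breaks over 60 minutes in an open field photobeam activity system.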
Description: All mice were tested with open field task.
In this study, the mice were placed in a Plexiglas cage (37.5 cm×21.5 cm×18 cm) under 50-65 lux light intensity. Their spontaneous locomotor activities were measured for 60 minutes using the Photobeam Activity System (PAS)-open field (San Diego Instruments, San Diego, Calif., USA). The total number of photo beam breaks of each mouse was measured as an index of locomotor activity.
The schizophrenia-like behavior, MK801-induced hyperactivity, were tested by open field task.
All mice were tested in an open field task.
The schizophrenia-like behavior, NMDA-hypofunction-induced hyperactivity, were tested by open field task.
The amount of paliperidone administered to Groups 3 and 4 was equal. The schizophrenia-like behavior, MK801-induced hyperactivity, were tested by open field task.
The amount of paliperidone administered to Groups 3 and 4 was equal. The schizophrenia-like behavior, NMDA-hypofunction-induced hyperactivity, were tested by open field task.

[3] = for blood glucose levels during glucose tolerance test compared to vehicle: mice
Description: For the acute study, mice were randomly assigned into one of the five groups listed below. • Group 1: Vehicle control • Group 2: NA (3.77 mg/kg) • Group 3: Clz (10 mg/kg) • Group 4: Clz (10 mg/kg)+NA (3.77 mg/kg) • Group 5: Clz:NA 1:1 salt (13.77 mg/kg)
For the repeated dose study, two cohorts of mice were used. In cohort 1, mice were randomly assigned into one of the three groups listed below. • Group 1: Vehicle control • Group 2: Clz (10 mg/kg) • Group 3: Clz:NA 1:1 salt (13.77 mg/kg)
In cohort 2, the mice were randomly assigned into one of the three groups listed below. • Group 1: Vehicle control • Group 2: Clz (3 mg/kg) • Group 3: Clz:NA 1:1 salt (4.13 mg/kg)
To assess glucose tolerance, mice were fasted overnight on day 18 (for cohort 1) and on day 35 (for cohort 2), and their blood glucose response to i.p. administration of glucose (2 g/kg) was determined. Blood glucose levels were assessed in the whole blood collected from the tail vein, 60 min after drug administration Immediately following this glucose measurement, all mice were subjected to a glucose tolerance test by receiving an intraperitoneal challenge injection of 2 g/kg of glucose, and blood glucose levels were measured at 0, 30, 60 and 120 minutes.
Mice used in this study were randomly assigned into one of the six following groups: • Group 1: Vehicle control • Group 2: Clz (10 mg/kg) • Group 3: Clz (10 mg/kg)+enriched TA (22.5 mg/kg) • Group 4: Clz (10 mg/kg)+enriched TA (11.3 mg/kg) • Group 5: Clz:enriched TA 2:1 salt (32.5 mg/kg) • Group 6: Clz:enriched TA 4:1 salt (21.3 mg/kg)
One day before the glucose tolerance test, the mice fasted overnight and the blood glucose levels were measured in whole blood collected from the tail vein. Glucose levels were measured using a portable glucose meter (Contour® Plus, Bayer AG, Leverkusen, Germany) 60 min after they were acutely administered with the treatments indicated above Immediately following this glucose measurement, all mice were subjected to a glucose tolerance test by receiving an intraperitoneal challenge injection of 2 g/kg of glucose. Blood glucose levels were measured at 30, 60 and 120 minutes.
Two cohorts of mice were used in this study. […]

[4] = Stress study at 40° C./75% relative humidity in a closed system, HPLC analysis; details: 40° C./75% RH, 30 days, in the presence of free benzoic acid
[5] = Water solubility at 25° C.; details: 25° C.
[6] = Carr Index (USP 1174), flowability; type: physicochemical

Row | Compound | Rate of reduce olanzapine-induced hyperglycemia (%) ([1]; acute i.p., dosage of olanzapine 5 mg/kg) | Rate of reduce olanzapine-induced hyperglycemia (%) ([1]; acute i.p., dosage of olanzapine 10 mg/kg) | Rate of reduce olanzapine-induced hyperglycemia (%) ([1]; acute oral, dosage of olanzapine 10 mg/kg) | Recovery rate (%) ([2]; dosage of olanzapine 0.1 mg/kg) | locomotor activity in MK-801 treated mice ([2]; oral olanzapine 0.1 mg/kg or nicotinic acid salt 0.14 mg/kg) | blood glucose levels during glucose tolerance test compared to vehicle ([3]; single i.p. dose, olanzapine 5 mg/kg or salt 6.97 mg/kg, glucose 1 g/kg i.p.) | blood glucose levels during glucose tolerance test compared to vehicle ([3]; single i.p. dose, olanzapine 10 mg/kg or salt 13.94 mg/kg, glucose 1 g/kg i.p.) | blood glucose levels during glucose tolerance test compared to vehicle ([3]; single oral dose, olanzapine 10 mg/kg, NA 3.94 mg/kg, mixture, or salt 13.94 mg/kg) | Recovery rate (%) ([2]; dosage of clozapine 1 mg/kg (benzoic acid salt study)) | Degradation during the stress study (HPLC before vs after) [4] | water solubility [5] [mg/mL] | Open-field test effect (formula [formula] not readable) ([2]; acute oral, quetiapine 10 mg/kg) [%] | locomotor activity in MK-801 treated mice ([2]; oral quetiapine 10 mg/kg or nicotinic acid salt […]) | Carr Index [6] [%] | Blood glucose level compared to vehicle after 120 min ([3]; GTT, dosage of quetiapine 20 mg/kg)
1 | Cc1cc2c(s1)Nc1ccccc1N=C2N1CCN(C)CC1.O=C(O)c1cccnc1 [olanzapine:nicotinic acid 1:1 salt] | 57.6 | 38.4 | 50.5 | 47.9 | significant decrease in MK-801-induced hyper-locomotion | significantly higher than vehicle control group at 120 min after glucose challenge | significantly higher than vehicle control group at 120 min after glucose challenge and remained lower than the olanzapine (10 mg/kg) group at all time points | high glucose levels only after 60 mins, before returning to normal glucose levels 120 min post glucose challenge | – | – | – | – | – | – | –
2 | CN1CCN(C2=Nc3cc(Cl)ccc3Nc3ccccc32)CC1.O=C(O)c1ccccc1 [clozapine:benzoic acid 1:1 salt] | – | – | – | – | – | – | – | – | 85.8 | did not degrade; also recorded: more stable than clozapine | 1.58 | – | – | – | –
3 | O=C(O)c1cccnc1.OCCOCCN1CCN(C2=Nc3ccccc3Sc3ccccc32)CC1 [quetiapine:nicotinic acid 1:1 salt] | – | – | – | – | – | – | – | – | – | – | 262 | 53.1 | significant decrease in locomotion activity, compared with quetiapine group | 20 | 1.00
